Experiments:
Test in all cases: relative viability (nuclei count vs DMSO), 5 days (fraction); higher = more cells survive
[1] = compound: C[C@]12O[C@H](C[C@]1(O)CO)n1c3ccccc3c3c4c(c5c6ccccc6n2c5c31)CNC4=O [Lestaurtinib] + CC(C)C[C@H](NC(=O)[C@H](Cc1ccccc1)NC(=O)c1cnccn1)B(O)O [Bortezomib] (partner 0.002 µM)
How it was run: (§1)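 Relative viability equals treated-well nuclei counts divided by vehicle-well nuclei counts. Counts came from 4× images of lung cancer cell lines grown in 1536-well plates for 5 days after pin-tool dosing on the day after seeding. Dosing used one drug alone or a fixed anchor-drug dose plus five library-drug doses (not always all listed) in √10 steps, and values are medians of duplicate plates.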

[2] = compound: C1/C(=C\C2=CC=CS2)/C(=O)/C(=C/C3=CC=CS3)/C1 + N=C(N)NC(=N)NCCc1ccccc1 [Phenformin] (partner 250 µM)
How it was run: as §1

[3] = compound: C1/C(=C\C2=CC=CS2)/C(=O)/C(=C/C3=CC=CS3)/C1 + C[C@@H](Oc1cc(-c2cnn(C3CCNCC3)c2)cnc1N)c1c(Cl)ccc(F)c1Cl [Crizotinib] (partner 1 µM)
How it was run: as §1

[4] = compound: C1=CC(=CC=C1C2=CC(=C(S2)NC(=O)N)C(=O)N)F [TPCA-1] + Cc1nc(Nc2ncc(C(=O)Nc3c(C)cccc3Cl)s2)cc(N2CCN(CCO)CC2)n1 [Dasatinib] (partner 0.075 µM)
How it was run: as §1

Cell Line | relative viability ([1]; first compound 0.005 µM) | relative viability ([1]; first compound 0.01581 µM) | relative viability ([1]; first compound 0.05 µM) | relative viability ([1]; first compound 0.1581 µM) | relative viability ([1]; first compound 0.5 µM) | relative viability ([2]; first compound 0.2 µM) | relative viability ([2]; first compound 0.6325 µM) | relative viability ([2]; first compound 2 µM) | relative viability ([2]; first compound 6.325 µM) | relative viability ([2]; first compound 20 µM) | relative viability ([3]; first compound 0.2 µM) | relative viability ([3]; first compound 0.6325 µM) | relative viability ([3]; first compound 2 µM) | relative viability ([3]; first compound 6.325 µM) | relative viability ([3]; first compound 20 µM) | relative viability ([4]; first compound 0.04 µM) | relative viability ([4]; first compound 0.1265 µM) | relative viability ([4]; first compound 0.4 µM) | relative viability ([4]; first compound 1.265 µM) | relative viability ([4]; first compound 4 µM)
LOU-NH91 | 0.486 | 0.549 | 0.53 | 0.511 | 0.373 | 0.696 | 0.757 | 0.843 | 0.67 | 0.736 | 0.739 | 0.572 | 0.743 | 0.679 | 0.714 | 0.558 | 0.558 | 0.38 | 0.43 | 0.52
LU99A | 1.02 | 1.02 | 0.516 | 0.382 | 0.208 | 0.771 | 0.819 | 0.857 | 0.819 | 0.801 | 0.539 | 0.665 | 0.625 | 0.466 | 0.562 | 0.509 | 0.522 | 0.619 | 0.356 | 0.366
LXF-289 | 0.975 | 1.08 | 0.75 | 0.762 | 0.185 | 0.553 | 0.536 | 0.554 | 0.459 | 0.513 | 0.811 | 0.835 | 0.767 | 0.709 | 0.821 | 0.24 | 0.225 | 0.267 | 0.134 | 0.104
NCI-H23 | 0.904 | 1.04 | 0.642 | 1.1 | 0.255 | 0.775 | 0.863 | 0.828 | 0.78 | 0.699 | 0.411 | 0.627 | 0.661 | 0.527 | 0.511 | 1.04 | 0.711 | 0.879 | 0.758 | 0.402
NCI-H322M | 1.25 | 1.34 | 1.13 | 0.588 | 0.967 | 0.85 | 0.814 | 0.923 | 0.628 | 0.768 | 0.876 | 1.03 | 0.98 | 0.743 | 0.922 | 0.267 | 0.261 | 0.244 | 0.281 | 0.238
NCI-H441 | 0.4 | 0.618 | 0.603 | 0.295 | 0.367 | 0.826 | 1.01 | 0.955 | 0.77 | 0.772 | 0.967 | 0.786 | 1.06 | 0.729 | 0.604 | 0.882 | 0.559 | 0.688 | 0.245 | 0.274
NCI-H460 | 1.08 | 1.35 | 0.926 | 1.44 | 0.84 | 0.543 | 0.568 | 0.519 | 0.344 | 0.522 | 0.813 | 1.17 | 0.958 | – | 0.835 | 0.707 | 0.421 | 0.496 | 0.465 | 0.361
NCI-H520 | 0.712 | 0.724 | 0.282 | 0.321 | 0.224 | 0.744 | 0.605 | 0.766 | 0.535 | 0.443 | 0.882 | 0.966 | 0.715 | 0.655 | 0.751 | 0.219 | 0.187 | 0.223 | 0.18 | 0.176
NCI-H596 | 1.16 | 1.28 | 0.969 | 1.29 | 1.06 | 0.711 | 0.799 | 0.846 | 0.78 | 0.857 | 1.09 | 0.975 | 1.04 | 0.981 | 0.949 | 0.661 | 0.559 | 0.599 | 0.597 | 0.763
NCI-H647 | 0.994 | 0.828 | 0.276 | 0.244 | 0.133 | 0.55 | 0.505 | 0.579 | 0.474 | 0.485 | 1.2 | 1.1 | 1.12 | 0.992 | 1 | 0.21 | 0.15 | 0.231 | 0.0911 | 0.079
NCI-H650 | 0.651 | 1.03 | 0.678 | 0.452 | 0.314 | 0.43 | 0.442 | 0.465 | 0.45 | 0.449 | 0.658 | 0.921 | 0.632 | 0.893 | 0.768 | 0.464 | 0.436 | 0.409 | 0.321 | 0.332
NCI-H661 | 0.736 | 0.813 | 0.831 | 0.685 | 0.436 | 0.288 | 0.259 | 0.275 | 0.253 | 0.307 | 1.02 | 0.986 | 0.948 | 0.947 | 1.02 | 1 | 0.838 | 0.928 | 0.806 | 0.394
NCI-H727 | 0.862 | 1.42 | 0.752 | 0.76 | 0.291 | 0.64 | 0.642 | 0.671 | 0.525 | 0.494 | 0.885 | 0.779 | 0.755 | 0.745 | 0.762 | 0.425 | 0.364 | 0.48 | 0.361 | 0.37
NCI-H838 | 0.79 | 0.783 | 0.615 | 0.472 | 0.148 | 0.689 | 0.541 | 0.687 | 0.65 | 0.519 | 0.896 | 0.889 | 0.807 | 0.784 | 0.858 | 0.378 | 0.259 | 0.266 | 0.247 | 0.259
NCI-H1355 | 1.36 | 1.2 | 1.21 | 1.03 | 0.571 | 0.512 | 0.492 | 0.465 | 0.397 | 0.434 | 1.19 | 1.05 | 1.03 | 0.943 | 1.08 | 0.836 | 0.652 | 0.716 | 0.599 | 0.519
NCI-H1437 | 0.67 | 0.479 | 0.431 | 0.521 | 0.429 | 0.294 | 0.281 | 0.402 | 0.26 | 0.318 | 0.954 | 0.886 | 0.828 | 0.902 | 0.824 | 0.462 | 0.368 | 0.565 | 0.408 | 0.325
NCI-H1563 | 0.938 | 0.836 | 0.741 | 0.957 | 0.705 | 0.672 | 0.66 | 0.655 | 0.614 | 0.593 | 0.843 | 0.887 | 0.899 | 0.832 | 0.987 | 0.42 | 0.453 | 0.468 | 0.455 | 0.452
NCI-H1650 | 0.183 | 0.236 | 0.197 | 0.199 | 0.193 | 0.495 | 0.434 | 0.426 | 0.391 | 0.467 | 1.16 | 1.02 | 1.14 | 0.605 | 0.923 | 0.361 | – | 0.336 | 0.269 | 0.269
NCI-H1651 | 0.878 | 1.07 | 0.883 | 1.03 | 0.648 | 0.352 | 0.372 | 0.446 | 0.26 | 0.323 | 0.863 | 0.876 | 0.893 | 0.816 | 0.855 | 0.444 | 0.382 | 0.402 | 0.395 | 0.383
NCI-H1666 | 0.87 | 1.25 | 0.969 | 0.765 | 0.35 | 0.55 | 0.596 | 0.589 | 0.522 | 0.584 | 1.23 | 1.19 | 1.09 | 0.643 | 0.974 | 0.842 | 0.829 | 0.828 | 0.805 | 0.677
NCI-H1734 | 1.08 | 0.904 | 0.681 | 0.456 | 0.325 | 0.415 | 0.403 | 0.443 | 0.363 | 0.412 | 0.617 | 0.78 | 0.631 | 0.606 | 0.731 | 0.508 | 0.421 | 0.492 | 0.455 | 0.41
NCI-H1755 | 1.01 | 0.95 | 0.938 | 0.455 | 0.371 | 0.636 | 0.642 | 0.63 | 0.505 | 0.61 | 0.867 | 0.896 | 0.822 | 0.704 | 0.831 | 0.499 | 0.424 | 0.396 | 0.31 | 0.285
NCI-H1792 | 1.29 | 1.08 | 0.5 | 1.07 | 0.437 | 0.514 | 0.273 | 0.67 | 0.287 | 0.322 | 0.991 | 0.998 | 1.07 | – | 1.06 | 0.8 | 0.715 | 0.765 | 0.678 | 0.624
NCI-H1915 | 0.971 | 1.06 | 0.6 | 0.949 | 0.284 | 0.365 | 0.378 | 0.362 | 0.205 | 0.37 | 0.86 | 0.951 | 0.912 | 0.841 | 0.893 | 0.322 | 0.292 | 0.33 | 0.263 | 0.243
NCI-H1975 | 0.467 | 0.368 | 0.345 | 0.318 | 0.217 | 0.399 | 0.388 | – | 0.37 | 0.411 | 0.988 | 0.957 | 1.02 | 0.718 | 0.971 | 0.39 | 0.381 | 0.368 | 0.368 | 0.188
NCI-H1993 | 1.11 | 1 | 1.45 | 0.788 | 0.594 | 0.514 | 0.518 | 0.494 | 0.42 | 0.517 | 0.897 | 0.9 | 0.784 | 0.63 | 0.743 | 0.564 | 0.54 | 0.617 | 0.522 | 0.537
NCI-H2009 | 1.01 | 0.967 | 0.801 | 0.755 | 0.167 | 0.511 | 0.52 | 0.493 | 0.453 | 0.426 | 1.11 | 1.09 | 1.02 | 0.971 | 1.06 | 0.395 | 0.267 | 0.278 | 0.223 | 0.177

From the supplement of paper PMC10307832
